Patent publication US11253593B2, “Granulated anthelmintic preparations and delivery systems” (Argenta Innovation Limited, priority 2009, dated 2022)
Where two headings read alike, the source gives them in different places.

Legend:
[1] = Stability trial post mix of reconstituted abamectin liquid concentrate; assay type: physicochemical
Experimental: The stability of the reconstituted abamectin was investigated after storage at 20-25° C. for 4 days.

[2] = in vivo
Experimental: A cross-over study was performed to determine the blood plasma concentrations of abamectin, oxfendazole and levamisole following oral treatment with reconstituted granule product containing these three anthelmintics.
Eight female romney sheep of similar age and body weight were used. The criteria for selection was to include animals that had not been dosed with a persistent anthelmintic formulation within 6 months of selection for the trial. Persistent anthelmintics include slow release capsules (e.g. Bionic), injectable or oral forms of moxidectin and closantel. Sheep were acclimated to the study site for 14 days before treatment.
Each sheep was randomly assigned to the treatment group and received one treatment and then the alternate treatment 21 days later.
The study procedures were as follows: • sheep were weighed using calibrated scales on Day −1 for weight ranking and allocation to treatment groups. […] Granules were weighed and added with the calculated volume of water to a 2 litre schott bottle and inverted a number of times until the granules were wetted and fully dispersed. On the morning of treatment the schott bottle was again gently inverted 3 or 4 times to ensure a homogeneous mix and approximately 100 mL was decanted from which the syringe was filled for dosing. • Treatments were administered on Day 0 and Day 21 at a dose volume of 1 ml/5 kg. Dosing was done using a 12 mL graduated syringe. Dose volume and time of administration was recorded and checked for each sheep. • Blood samples were collected before treatment, and after treatment at 0.5, 1, 2, 6, 8, 12, 15, 24 and 36 hrs.
Oxfendazole plasma levels are presented as two separate plasma metabolites: oxfendazole and fenbendazole, and the total of these two expressed as “total-oxfendazole”. All plasma metabolite units are presented as mg/kg

[3] = In-use stability, physico-chemical, of reconstituted dual active drug product; details: reconstituted drug product of 4.1; storage at 30 and 40° C. for 1 month
Experimental: The stability of reconstituted drug product was investigated after storage at 30 and 40° C. for 1 month.

[4] = In-use suspendability of reconstituted granule (oxfendazole as marker); assay type: physicochemical; details: reconstituted granule of 4.1 in water 1.1 kg/5 L
Experimental: The concentration of the reconstituted granule in water was 1.1 kg/5 L. Oxfendazole was chosen as a marker compound for drug suspension stability.
(Levamisole Fully Soluble)
2 h: At the top was 96 mg/g and at the bottom was 105.2 mg/g
4 h: At the top was 98 mg/g and at the bottom was 99 mg/g
4 days: At the top was 95.7 mg/g and at the bottom was 98 mg/g

[5] = Chemical and physical stability of abamectin in reconstituted triple active formulation; assay type: physicochemical; details: reconstituted with water, triple active formulation 6.1; storage at 30 and 40° C. for 1 month
Experimental: When reconstituted with water, the sstability of abamectin in the reconstituted triple active formulation was investigated after storage at 30 and 40° C. for 1 month.

[6] = female, Romney, sheep, in vivo, po
[7] = oral 1 ml/5 kg, pooled mean of 8 sheep, oxfendazole comparison
[8] = oral 1 ml/5 kg, pooled mean of 8 sheep, total oxfendazole comparison

OCc1ccccc1 [benzyl alcohol]
Degradation after reconstitution [1]: some degradation

COC(=O)Nc1nc2ccc(Sc3ccccc3)cc2[nH]1 [fenbendazole]
Tmax, plasma fenbendazole (metabolite) [2, 6]: 12 h | Cmax, plasma fenbendazole (metabolite) ([2]; sheep, in vivo, po): 0.209 mg/kg

c1ccc([C@H]2CN3CCSC3=N2)cc1 [levamisole]
Tmax [2, 6]: 1 h | Cmax, plasma levamisole ([2]; sheep, in vivo, po): 1.445 mg/kg | Chemical degradation [3]: less than 2%

COC(=O)Nc1nc2cc([S+]([O-])c3ccccc3)ccc2[nH]1 (stereo not shown) [oxfendazole]
Cmax, plasma oxfendazole [2, 7]: 0.792 mg/kg | Tmax, plasma oxfendazole [2, 7]: 15 h | Cmax, plasma total oxfendazole (oxfendazole + fenbendazole) [2, 8]: 0.984 mg/kg | Tmax, plasma total oxfendazole (oxfendazole + fenbendazole) [2, 8]: 12 h | Oxfendazole concentration at the bottom ([4]; 2 h): 105.2 mg/g | Oxfendazole concentration at the top ([4]; 2 h): 96 mg/g | Oxfendazole concentration at the bottom ([4]; 4 h): 99 mg/g | Oxfendazole concentration at the top ([4]; 4 h): 98 mg/g | Oxfendazole concentration at the bottom ([4]; 4 days): 98 mg/g | Oxfendazole concentration at the top ([4]; 4 days): 95.7 mg/g | Oxfendazole concentration, initial ([4]; initial): 100 mg/g | Chemical degradation [3]: no chemical degradation

abamectin
Degradation of abamectin [5]: less than 2% | Tmax, plasma abamectin ([2]; oral 1 ml/5 kg, pooled mean of 8 sheep, abamectin comparison): 24 h | Cmax, plasma abamectin ([2]; oral 1 ml/5 kg, pooled mean of 8 sheep, both cross-over phases, abamectin comparison): 0.017 mg/kg | Degradation after reconstitution ([1]; reconstituted liquid concentrate of Example 9, storage at 20-25° C. for 4 days): no degradation
